Laboratory results from patent US8388939B2, “Moisturizing cosmetic composition comprising a combination of homarine and erythritol” (Sederma, S.A.S., priority 2008, dated 2013).

Tested on: Human keratinocytes
Experiment: Synergistic osmo-protective activity of homarine and erythritol after NaCl hyper-osmotic stress; UPTIBLUE cell count
Format: cell-based
Method: Human kerotinocytes were cultured for 24 h in a culture medium (DMEMc+FCS) than incubated until confluence was obtained. At this stage, the cells were putted in pre-contact with the compounds for 24 h. The day after, a 5h NaCl stress in the presence of the compounds was applied to the cells in the DMEMc medium (without FCS, with BSA) containing 150 mM of NaCl. After this stress, cells were rinced and were recovered with or without the compounds to be tested in the same medium as before (T0). Recovery was estimated at long term by measuring the survival at T5 days and at T7 days after the beginning of the stress (T0). The compounds were tested at the following concentrations: erythritol 0.6%, homarine 0.006% (corresponding to 1×) and homarine 0.06% (corresponding to 10×).
The UPTIBLUE technic was used to visualize and quantify the cell number after the hyper-osmotic shock and the osmo-protective effect of the compound was thus evaluated.

| SMILES | % of change in cell count versus control (post-stress) (T0, erythritol 0.6% alone) | % of change in cell count versus control (post-stress) (T5 days, erythritol 0.6% alone) | % of change in cell count versus control (post-stress) (T7 days, erythritol 0.6% alone) | Osmo-protective effect with regards a hyper-osmotic stress, in words (5 and 7 days after hyper-osmotic shock) | % of change in cell count versus control (post-stress) (T0, homarine 0.006% (1x), erythritol 0.6% where combined) | % of change in cell count versus control (post-stress) (T0, homarine 0.06% (10x), erythritol 0.6% where combined) | % of change in cell count versus control (post-stress) (T5 days, homarine 0.006% (1x), erythritol 0.6% where combined) | % of change in cell count versus control (post-stress) (T5 days, homarine 0.06% (10x), erythritol 0.6% where combined) | % of change in cell count versus control (post-stress) (T7 days, homarine 0.006% (1x), erythritol 0.6% where combined) | % of change in cell count versus control (post-stress) (T7 days, homarine 0.06% (10x), erythritol 0.6% where combined) |
| --- | --- | --- | --- | --- | --- | --- | --- | --- | --- | --- |
| OC[C@@H](O)[C@@H](O)CO [Erythritol] | −8% | +39% | +62% | – | – | – | – | – | – | – |
| C[n+]1ccccc1C(=O)[O-] [Homarine] | – | – | – | dose dependant | +10% | +14% | +33% | +93% | +26% | +130% |
